Molecular target: T1, Nicotinamide N-methyltransferase (Homo sapiens) (UniProt P40261)
T1 sequence (whole entry): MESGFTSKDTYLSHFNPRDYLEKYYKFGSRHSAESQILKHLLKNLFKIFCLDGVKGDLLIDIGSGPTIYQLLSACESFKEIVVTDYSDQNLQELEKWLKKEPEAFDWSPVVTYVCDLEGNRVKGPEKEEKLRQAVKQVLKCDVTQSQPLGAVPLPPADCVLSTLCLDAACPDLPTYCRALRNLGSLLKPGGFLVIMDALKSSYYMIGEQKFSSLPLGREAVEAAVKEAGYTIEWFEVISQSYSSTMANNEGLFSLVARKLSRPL
Details: K562, Lysate

| ΔTm [°C] | SMILES |
| --- | --- |
| 5 | NC(=O)NCC[C@H](C#Cc1cccc(C(N)=O)c1)C[C@H]1O[C@@H](n2cnc3c(N)ncnc32)[C@H](O)[C@@H]1O |

System: not listed separately
Test: Permeability across apical to basolateral side in human Caco2 cells after 60 mins by HPLC-MS/MS analysis
Format: ADME, cell-based
Details: caco-2, 1 h

| permeability | SMILES |
| --- | --- |
| Impermeable | COC(=O)[C@@H](N)CC[C@H](C#Cc1cccc(C(N)=O)c1)C[C@H]1O[C@@H](n2cnc3c(N)ncnc32)[C@H](O)[C@@H]1O |
| Impermeable | NC(=O)NCC[C@H](C#Cc1cccc(C(N)=O)c1)C[C@H]1O[C@@H](n2cnc3c(N)ncnc32)[C@H](O)[C@@H]1O |
| Impermeable | NC(=O)c1cccc(C#C[C@@H](CC[C@H](N)C(N)=O)C[C@H]2O[C@@H](n3cnc4c(N)ncnc43)[C@H](O)[C@@H]2O)c1 |

| SMILES | permeability |
| --- | --- |
| NCCC[C@H](C#Cc1cccc(C(N)=O)c1)C[C@H]1O[C@@H](n2cnc3c(N)ncnc32)[C@H](O)[C@@H]1O | 1.3 ×10⁻⁶ cm/s |

System: U2OS
Test: Cytotoxicity against human U2OS cells at 100 uM after 48 hrs by CellTiter-Glo luminescent cell viability
Format: cell-based
Details: not given

| SMILES | Activity |
| --- | --- |
| COC(=O)[C@@H](N)CC[C@H](C#Cc1cccc(C(N)=O)c1)C[C@H]1O[C@@H](n2cnc3c(N)ncnc32)[C@H](O)[C@@H]1O | Non-Toxic |
| NC(=O)NCC[C@H](C#Cc1cccc(C(N)=O)c1)C[C@H]1O[C@@H](n2cnc3c(N)ncnc32)[C@H](O)[C@@H]1O | Non-Toxic |
| NC(=O)c1cccc(C#C[C@@H](CC[C@H](N)C(N)=O)C[C@H]2O[C@@H](n3cnc4c(N)ncnc43)[C@H](O)[C@@H]2O)c1 | Non-Toxic |
| NCCC[C@H](C#Cc1cccc(C(N)=O)c1)C[C@H]1O[C@@H](n2cnc3c(N)ncnc32)[C@H](O)[C@@H]1O | Non-Toxic |

Molecular target: T2, Nicotinamide N-methyltransferase (Homo sapiens, UniProt P40261)
T2 sequence (P40261 whole entry): T1 sequence (whole entry)
Test: Inhibition of N-terminal His6-tagged wild type human NNMT expressed in Escherichia coli NiCo21(DE3) assessed as reduction in 1-methylquinolinium level using quinoline as substrate in presence of SAM and measured every 27 seconds for 5.5 mins by fluorescence-based assay
Details: read-out: pKi (converted)

| SMILES | Ki [nM] |
| --- | --- |
| COC(=O)[C@@H](N)CC[C@H](C#Cc1cccc(C(N)=O)c1)C[C@H]1O[C@@H](n2cnc3c(N)ncnc32)[C@H](O)[C@@H]1O | 437 |
| Nc1cccc2c(C#C[C@@H](CC[C@H](N)C(=O)O)C[C@H]3O[C@@H](n4cnc5c(N)ncnc54)[C@H](O)[C@@H]3O)cccc12 | 3720 |
| NC(=O)c1cccc(CCN(CCC[C@H](N)C(=O)O)C[C@H]2O[C@@H](n3cnc4c(N)ncnc43)[C@H](O)[C@@H]2O)c1 | 89.1 |
| NC(=O)c1cccc(CC[C@@H](CC[C@H](N)C(=O)O)C[C@H]2O[C@@H](n3cnc4c(N)ncnc43)[C@H](O)[C@@H]2O)c1 | 4.68 |
| NC(=O)c1ccccc1C#C[C@@H](CC[C@H](N)C(=O)O)C[C@H]1O[C@@H](n2cnc3c(N)ncnc32)[C@H](O)[C@@H]1O | 19500 |
| NC(=O)NCC[C@H](C#Cc1cccc(C(N)=O)c1)C[C@H]1O[C@@H](n2cnc3c(N)ncnc32)[C@H](O)[C@@H]1O | 75.9 |
| NC(=O)c1cccc(C#C[C@@H](CCCC(=O)O)C[C@H]2O[C@@H](n3cnc4c(N)ncnc43)[C@H](O)[C@@H]2O)c1 | 22400 |
| C#C[C@@H](CC[C@H](N)C(=O)O)C[C@H]1O[C@@H](n2cnc3c(N)ncnc32)[C@H](O)[C@@H]1O | 47900 |
| NC(=O)c1cccc(C#C[C@@H](CC[C@H](N)C(N)=O)C[C@H]2O[C@@H](n3cnc4c(N)ncnc43)[C@H](O)[C@@H]2O)c1 | 17 |
| NC(=O)c1cccc(C#CCC[C@H]2O[C@@H](n3cnc4c(N)ncnc43)[C@H](O)[C@@H]2O)c1 | 263 |
| NC(=O)CCC[C@H](C#Cc1cccc(C(N)=O)c1)C[C@H]1O[C@@H](n2cnc3c(N)ncnc32)[C@H](O)[C@@H]1O | 1050 |
| NC(=O)c1cccc(C#C[C@@H]2C[C@H]2[C@H]2O[C@@H](n3cnc4c(N)ncnc43)[C@H](O)[C@@H]2O)c1 | 3890 |
| CO[C@@H]1O[C@H](C[C@@H](C#Cc2cccc(C(N)=O)c2)CC[C@H](N)C(=O)O)[C@@H](O)[C@H]1O | 77600 |
| NC(=O)c1cccc(C#C[C@H](CC[C@H](N)C(=O)O)C[C@H]2O[C@@H](n3cnc4c(N)ncnc43)[C@H](O)[C@@H]2O)c1 | 123 |
| Nc1ncnc2c1ncn2[C@@H]1O[C@H](CCCC[C@H](N)C(=O)O)[C@@H](O)[C@H]1O | 21400 |
| NC(=O)c1cc(C#C[C@@H](CC[C@H](N)C(=O)O)C[C@H]2O[C@@H](n3cnc4c(N)ncnc43)[C@H](O)[C@@H]2O)c2c(c1)OCO2 | 32.4 |
| NC(=O)c1cccc(CCN(CC[C@H](N)C(=O)O)C[C@H]2O[C@@H](n3cnc4c(N)ncnc43)[C@H](O)[C@@H]2O)c1 | 912 |
| NC(=O)c1cccc(CC[C@H](CC[C@H](N)C(=O)O)C[C@H]2O[C@@H](n3cnc4c(N)ncnc43)[C@H](O)[C@@H]2O)c1 | 107 |
| NCCC[C@H](C#Cc1cccc(C(N)=O)c1)C[C@H]1O[C@@H](n2cnc3c(N)ncnc32)[C@H](O)[C@@H]1O | 57.5 |

Second part, the compound after the results:

| Ki [nM] | SMILES |
| --- | --- |
| 3.39 | Cc1ccc(C#C[C@@H](CC[C@H](N)C(=O)O)C[C@H]2O[C@@H](n3cnc4c(N)ncnc43)[C@H](O)[C@@H]2O)cc1C(N)=O |
| 2.63 | NC(=O)c1cc(C#C[C@@H](CC[C@H](N)C(=O)O)C[C@H]2O[C@@H](n3cnc4c(N)ncnc43)[C@H](O)[C@@H]2O)ccc1C(F)(F)F |
| 8.91 | NC(=O)c1cc(C#C[C@@H](CC[C@H](N)C(=O)O)C[C@H]2O[C@@H](n3cnc4c(N)ncnc43)[C@H](O)[C@@H]2O)ccn1 |
| 0.24 | NC(=O)c1cccc(C#C[C@@H](CCC[C@H](N)C(=O)O)C[C@H]2O[C@@H](n3cnc4c(N)ncnc43)[C@H](O)[C@@H]2O)c1 |
| 12600 | Nc1ncnc2c1ncn2[C@@H]1O[C@H](C[C@@H](C#Cc2ccccc2)CC[C@H](N)C(=O)O)[C@@H](O)[C@H]1O |
| 195 | Nc1ncnc2c1ncn2[C@@H]1O[C@H](C[C@@H](C#Cc2cccc(S(N)(=O)=O)c2)CC[C@H](N)C(=O)O)[C@@H](O)[C@H]1O |
| 0.191 | NC(=O)c1cc(C#C[C@@H](CC[C@H](N)C(=O)O)C[C@H]2O[C@@H](n3cnc4c(N)ncnc43)[C@H](O)[C@@H]2O)ccc1Cl |
| 55 | Nc1ncnc2c1ncn2[C@@H]1O[C@H](C[C@@H](C#Cc2ccc3c(c2)C(=O)NCC3)CC[C@H](N)C(=O)O)[C@@H](O)[C@H]1O |
| 35.5 | NC(=O)c1ccnc(C#C[C@@H](CC[C@H](N)C(=O)O)C[C@H]2O[C@@H](n3cnc4c(N)ncnc43)[C@H](O)[C@@H]2O)c1 |
| 1.86 | NC(=O)c1cc(C#C[C@@H](CC[C@H](N)C(=O)O)C[C@H]2O[C@@H](n3cnc4c(N)ncnc43)[C@H](O)[C@@H]2O)ccc1F |
| 1860 | Nc1ncnc2c1ncn2[C@@H]1O[C@H](C[C@@H](C#Cc2ccc3c(c2)C(=O)NC3)CC[C@H](N)C(=O)O)[C@@H](O)[C@H]1O |
| 5.01 | NC(=O)c1cncc(C#C[C@@H](CC[C@H](N)C(=O)O)C[C@H]2O[C@@H](n3cnc4c(N)ncnc43)[C@H](O)[C@@H]2O)c1 |
| 6.76 | NC(=O)c1cccc(C#C[C@@H](CC[C@H](N)C(=O)O)C[C@H]2O[C@@H](n3cnc4c(N)ncnc43)[C@H](O)[C@@H]2O)n1 |
| 5750 | NC(=O)c1ccc(C#C[C@@H](CC[C@H](N)C(=O)O)C[C@H]2O[C@@H](n3cnc4c(N)ncnc43)[C@H](O)[C@@H]2O)cc1 |

From ChEMBL document CHEMBL4414609, “High-Affinity Alkynyl Bisubstrate Inhibitors of Nicotinamide N-Methyltransferase (NNMT)” (J Med Chem, 2019)
